How the values were obtained:
GUMC-403 [1] = test: viability at highest tested concentration (max response) relative to DMSO (% of DMSO control); higher = less cytotoxic; settings: library / dose series: MIPE library, 11-point 1:3 dilution; top concentration 46.1 µM; 48 h
In short: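 Plates of 1536 wells were seeded with 700 patient-derived GUMC-403 papilloma cells per well, grown by conditional reprogramming, in 5 μL F + Y medium and kept overnight at 37 °C. Compounds followed at 23 nL by pin tool over an 11-point 1:3 series, for 48 h. After a CellTiter-Glo luminescence read on a ViewLux, signals were set against vehicle wells as 100% and empty wells as 0%. The reported number is viability at the highest tested concentration relative to vehicle control.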

GUMC-403 [2] = test: AC50 for reduction of cell viability; higher = less potent; settings: library / dose series: MIPE library, 11-point 1:3 dilution; 48 h

COc1cc(C[C@@H](CO)[C@H](CO)Cc2ccc(O)c(OC)c2)ccc1O
viability (GUMC-403 [1]): 34.9 | AC50 for reduction of cell viability (GUMC-403 [2]): 2.64 µM

CCC1=C2CN3C(=O)\C4=C(/C=C3/C2=NC5=CC=C(O)C=C15)[C@@](O)(CC)C(=O)OC4
viability (GUMC-403 [1]): 78.2 | AC50 for reduction of cell viability (GUMC-403 [2]): 4.69 µM

CN(C)CCCN1c2ccccc2CCc2ccc(Cl)cc21
viability (GUMC-403 [1]): 36 | AC50 for reduction of cell viability (GUMC-403 [2]): 1.32 µM

N#CC(=C(/N)Sc1ccccc1N)/C(C#N)=C(\N)Sc1ccccc1N
viability (GUMC-403 [1]): 50.4 | AC50 for reduction of cell viability (GUMC-403 [2]): 4.69 µM

NC(=O)c1ccc2[nH]c(-c3ccc(Oc4ccc(Cl)cc4)cc3)nc2c1
viability (GUMC-403 [1]): 79.5 | AC50 for reduction of cell viability (GUMC-403 [2]): 2.64 µM

CCCCOc1c(C(=O)c2c(F)cc(C)cc2F)cnc2[nH]ncc12
viability (GUMC-403 [1]): 75.8 | AC50 for reduction of cell viability (GUMC-403 [2]): 8.33 µM
